Experimental data taken from PMC4603696, “Discovery and characterization of novel small-molecule inhibitors targeting nicotinamide phosphoribosyltransferase” (Scientific Reports, 2015).
Where two headings read alike, the source gives them in different places.

Columns and labels:
[1] = target: T1, NAMPT (Homo sapiens, UniProt P43490); parameters: His-tag; made in house; host or cells: E. coli BL21-CodonPlus (DE3)-RIL; settings: previous study of the authors ref 7; read-out: NAMPT inhibition activity IC50; cited from earlier work
T1 sequence (P43490 whole entry): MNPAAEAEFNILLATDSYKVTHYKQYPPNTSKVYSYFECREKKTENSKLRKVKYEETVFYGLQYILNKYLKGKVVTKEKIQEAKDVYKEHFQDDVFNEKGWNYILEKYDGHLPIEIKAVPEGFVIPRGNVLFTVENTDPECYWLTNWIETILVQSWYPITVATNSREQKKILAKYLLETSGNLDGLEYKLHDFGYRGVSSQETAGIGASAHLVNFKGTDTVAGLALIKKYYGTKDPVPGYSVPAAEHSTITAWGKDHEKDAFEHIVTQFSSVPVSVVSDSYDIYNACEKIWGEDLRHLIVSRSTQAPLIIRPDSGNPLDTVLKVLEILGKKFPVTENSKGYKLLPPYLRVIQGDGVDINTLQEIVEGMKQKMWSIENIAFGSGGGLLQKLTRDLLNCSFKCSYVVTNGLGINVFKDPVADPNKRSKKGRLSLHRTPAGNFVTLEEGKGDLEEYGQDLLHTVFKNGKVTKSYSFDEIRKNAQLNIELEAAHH

[2] = tested on: NAD level of HepG2 cells; assay: Cellular NAD level, spectrophotometric enzymatic cycling assay; type: cell-based, human; settings: HepG2, even at 100 μM, 24 hours
Description: F0 was the average d fluo rescen ce of si x backgr ound control s, repres ent ing zero activ ity from a si mul ated enz ym e reaction wit h on ly NAMP T but no NAM and com pound; F100 % was the average d fluorescen ce of si x ref erence cont rols, repr ese nt ing 100% activ ity from int act enz ym e reaction w ithou t com pound p ert ur bation.
Compounds with Activ ity% less tha n 40% were consi dered as inhi bi tor s and subj ect ed to a secondary screen inhi bition valida tion, in whi ch anot her backgr oun d cont rol (FC0), a si mul ated enz ym e reaction with NAMP Tand com pound but no NAM, was int roduced to elimina te the di rec t and /or ind irect inf lue nc e fro m compou nd. At thi s st age , the Activ ity% was cal culated accor ding t o e qua tion ( 2) :
In the screeni ng, the si gna l-to- noi se (S/N) rat io was cal cul ated usi ng the equa tion: (Mean signal -Mean backgr oun d) / SD backgr oun d4. Coe fficient s of vari atio n (CV) were the ratio of SD to mean. The Z ’f act or w as de term ine d by e qua tion (3) 5:
Z' −= (3)1−3(S Dhi ghsigna l+SDlowsigna l)
Mean hi gh signa l Meanlow signa l
Determ inat ion of IC50 for NAMPT inhi bitor s […]
vari ous con cent ration s were adde d int o 96-well pl ate. The pl ate was inc uba ted at 37 °C for 5 min after addition of 16.5 μl react ion buf fer cont aini ng N AMP T. The enz ym e reactions were ini tiated by 4.5 μl NAM (1.1 1 μM) follow ing NMN measurem ent as de scri bed above . […]
Cellul ar level of NAD was measured by spe ctrophot om etric enz ym atic cyc ling assa y, as de scri bed pr evi ousl y6-8. […]
Cell vi ability was de termine d by ou r previ ous method9 usi ng the Cell Counting Kit-8 (CCK -8, Dojindo, Ja pa n). […] Th e absor banc e at 450 nm (A450) was de tected by a pl ate reade r. […]
Briefly, cel ls were se ede d int o 96-well pl ates, cul tur ed overni ght , and trea ted with correspond ing com poun ds for 72 h. […] Sul for hoda mine B in the cells was di sso lved in 10 mmol/L Tris-HCl and was measured at 515 nm usi ng a multiw ell spect ropho tometer […]

[3] = target: T1, NAMPT; assay: NAMPT activity assay by fluorescence of NMN derivative (HTS system), IC50 determination; type: biochemical; parameters: His-tag; made in house; host or cells: E. coli BL21-CodonPlus (DE3)-RIL
[4] = target: T1, NAMPT; assay: Cellular thermal shift assay (CETSA / […]) in intact HepG2 cells; type: cell-based; parameters: endogenous in cells; host or cells: HepG2; settings: for CETSA target binding of NAMPT in intact cell: intact HepG2 cells, 10 μM, 3 h
[5] = target: T2, NAMPT A244S mutant (Homo sapiens, UniProt P43490, A244S); assay: NAMPT activity assay, A244S mutant; type: biochemical; settings: for IC50: same condition as wild-type, read-out: IC50 against A244S mutant
T2 construct: His-tag; made in house; host or cells: E. coli BL21-CodonPlus (DE3)-RIL
T2 sequence (P43490 whole entry A244S): as the sequence (P43490 whole entry) above, with A244S counted along it

[6] = tested on: A549 cells; assay: SRB assay in A549; type: cell-based, human; settings: Homo sapiens; A549, SRB, 10-fold concentration gradient; read-out: anti-proliferation IC50, initial screen
Description: (§1) Sulfor hod am ine B p rotei n st ai ning (SRB) assay
(§2) Cell pr oliferat ion was eva lua ted by sul for hod amine B pr ot ein st aini ng (SRB) assa y10-12.
(§3) Briefly, cel ls were se ede d int o 96-well pl ates, cul tur ed overni ght , and trea ted with correspond ing com poun ds for 72 h. Cells were the n fixe d with 10% trichl or oa cetic aci d and st ained with sul for hoda mine B (Sigm a). Sul for hoda mine B in the cells was di sso lved in 10 mmol/L Tris-HCl and was measured at 515 nm usi ng a multiw ell spect ropho tometer (VERSA max, Mol ecul ar Devi ces, Sunnyva le, CA). The inhi bi tion rat e on cell pr olif eratio n was cal culated for each well as (A515contr ol cells-A 515tr eated cells)/A515contr ol cells×100 % (A515:
(§4) OD va lue at 515 nm ). The averag e IC50 va lue s were de termine d by Logit method from at leas t t hr eei nde pe nde nt test s.

[7] = tested on: HepG2 cells; assay: Sulforhodamine B protein staining (SRB) assay in HepG2; type: cell-based, human; settings: Homo sapiens
Description: as §1, §2, §3, §4

[8] = target: T3, NAMPT H191A mutant (Homo sapiens, UniProt P43490, H191A); assay: NAMPT activity assay, H191A mutant; type: biochemical; settings: for IC50: same condition as wild-type, read-out: IC50 against H191A mutant
T3 construct: His-tag; made in house; host or cells: E. coli BL21-CodonPlus (DE3)-RIL
T3 sequence (P43490 whole entry H191A): as the sequence (P43490 whole entry) above, with H191A counted along it

[9] = target: T1, NAMPT; assay: Cellular thermal shift assay (CETSA / […]) in HepG2 cell lysate; type: binding; parameters: endogenous in cells; host or cells: HepG2; settings: HepG2 cell lysate, 100 μM
[10] = tested on: HCT116 cells; assay: SRB assay in HCT116; type: cell-based; settings: Homo sapiens, HCT-116; HCT116, SRB, 10-fold concentration gradient; read-out: anti-proliferation IC50, initial screen
Description: as §1, §2, §3, §4

[11] = tested on: Huh7-C cells; assay: CCK-8 assay in stem-like human hepatoma cell line Huh7-C; type: cell-based; settings: Huh7-C, treated 60 h, read-out: CCK-8 assay in Huh7-C: IC50
Description: (§5) Cellc ount ing k it-8 (CCK-8) assa y
Cell vi ability was de termine d by ou r previ ous method9 usi ng the Cell Counting Kit-8 (CCK -8, […]
(§6) 10 μl CCK-8 sol ution was adde d to the cul ture medium and inc ub ated at 37 °C for 1 h. Th e absor banc e at 450 nm (A450) was de tected by a pl ate reade r. Each e xperi ment w as carr ied out i n t riplic ate i n thr ee r eplic ate w ells.

[12] = target: T4, NAMPT I309Y mutant (Homo sapiens, UniProt P43490, I309Y); assay: NAMPT activity assay, I309Y mutant; type: biochemical; settings: for IC50: same condition as wild-type, read-out: IC50 against I309Y mutant
T4 construct: His-tag; made in house; host or cells: E. coli BL21-CodonPlus (DE3)-RIL
T4 sequence (P43490 whole entry I309Y): as the sequence (P43490 whole entry) above, with I309Y counted along it

[13] = tested on: HepG2 cells; assay: Cell counting kit-8 (CCK-8) cell viability assay in HepG2; type: cell-based, human; settings: HepG2, 48 hours treatment, read-out: CCK-8 assay in HepG2: IC50
Description: as §5
Cell vi ability was de termine d by ou r previ ous method9 usi ng the Cell Counting Kit-8 (CCK -8, Dojindo, Ja pa n). In hu man he pa tocellu lar carcinom a cell line HepG 2, cells were seede d in 96-well plate and starve d for ove r 12 h with se rum-free DMEM at 60~ 70% conf lue nc y, the n trea ted wit h com pounds or ve hicle for 24 h to 72 h accor ding to expe riment requi rement s. […]
as §6

[14] = HepG2, 72 h, HepG2, second test, 2-fold concentration gradient, 72 hours, read-out: SRB assay in HepG2: IC50
[15] = HepG2, HepG2, SRB, 10-fold concentration gradient, read-out: anti-proliferation IC50, initial screen
[16] = recombinant human NAMPT, mean ± s.e., read-out: NAMPT IC50
[17] = wild type, run beside the mutants, read-out: IC50 against wild-type NAMPT (mutagenesis study)

CETSA target binding of NAMPT in intact cell [4]	change in IC50/potency versus wild-type NAMPT, A244S [5] [fold]	IC50 [5] [µM]	IC50 [6] [µM]	IC50 [7, 14] [µM]	IC50 [7, 15] [µM]	change in IC50 versus wild-type NAMPT, H191A [8]	IC50 [8] [µM]	CETSA melting curve shift of NAMPT in cell lysate [9]	IC50 [10] [µM]	IC50 [11] [µM]	IC50 [3, 16] [µM]	change in IC50/potency versus wild-type NAMPT, I309Y [12] [fold]	IC50 [12] [µM]	IC50 ([13]; Homo sapiens, HepG2, 48 h) [µM]	Structure (SMILES)	IC50 [3, 17] [µM]	other results
															O=C(OC[C@H]1O[C@@H](OC(=O)c2cc(O)c(O)c(OC(=O)c3cc(O)c(O)c(O)c3)c2)[C@H](OC(=O)c2cc(O)c(O)c(OC(=O)c3cc(O)c(O)c(O)c3)c2)[C@@H](OC(=O)c2cc(O)c(O)c(OC(=O)c3cc(O)c(O)c(O)c3)c2)[C@@H]1OC(=O)c1cc(O)c(O)c(OC(=O)c2cc(O)c(O)c(O)c2)c1)c1cc(O)c(O)c(OC(=O)c2cc(O)c(O)c(O)c2)c1 [gallotannin]		IC50 [1]: 1.3 ± 0.1 µM
															O=S(=O)(c1ccc(NC(=S)NCc2ccncc2)cc1)N1CCCCC1 [compound 733, reference compound]		effect on cellular NAD level (in words) [2]: did not show any effect; inhibition on NAMPT activity (in words) [3]: no inhibition
directly bound with NAMPT	2 to 3	0.0361 ± 0.00411	< 5	~3	< 5	no change	0.0253 ± 0.00236	obvious right shifts	< 5	0.308 ± 0.0322	0.0217	2 to 3	0.0583 ± 0.0023	0.326 ± 0.0733	CC(C)(C)OC(=O)N1CCN(S(=O)(=O)c2ccc(NC(=S)NCc3cccnc3)cc2)CC1 [MS1]	0.0246 ± 0.00265	ITDRFCETSA of NAMPT in cell lysate versus intact cells ([4]; 62 °C, lysate value relative to intact cells): approximately 100 fold; IC50 [13]: 0.326 µM
directly bound with NAMPT	2 to 3	0.0377 ± 0.0019	< 5	~3	< 5	no change	0.0252 ± 0.00242	obvious right shifts	< 5	0.514 ± 0.0833	0.0237 ± 0.0078	2 to 3	0.0576 ± 0.00371	0.615 ± 0.0424	O=S(=O)(c1ccc(NC(=S)NCc2cccnc2)cc1)N1CCN(Cc2ccc(C(F)(F)F)cc2)CC1 [MS34]	0.0248 ± 0.00187	
